Columns and labels:
[1] = tested on: larva of Spodoptera litura; test: Test against larva of Spodoptera litura (leaf dip, sweet potato leaves); assay type: in vivo; conditions: 20 ppm concentration of effective component; third instar larvae on treated sweet potato leaves; after 7 days; 25° C.
Procedure: Test against larva of Spodoptera litura
In order to make an appropriate formulation of an active compound 1 part by weight of the active compound was mixed with the above-mentioned amount of solvent containing the above-mentioned amount of emulsifier and the mixture was diluted with water to a prescribed concentration.
Leaves of sweet potato were soaked in the test agent diluted to a prescribed concentration with water, dried in the air and put in a dish of 9 cm diameter. 10 larvae of Spodoptera litura at the third instar were placed on the leaves and kept in a room at constant temperature of 25° C. After 2 and 4 days further leaves of sweet potato were added and after 7 days the number of dead larvae was counted and the rate of death was calculated.
In this test the results of 2 dishes at 1 section were averaged.

[2] = tested on: larva of Cnaphalocrocis medinalis Guenee; test: Test against larva of Cnaphalocrocis medinalis Guenee (systemic, root uptake by paddy rice); assay type: in vivo; conditions: 20 ppm concentration of effective component; rice root parts in diluted solution, foliage fed to second instar larvae; after 7 days; 25° C.
Source text: Test Against Larva of Cnaphalocrocis medinalis Guenee Root parts of paddy rice (variety: […]) cultivated to 4 to 5 leaf stage were put in a brown bottle filled with the diluted aqueous solution of the prescribed concentration of the active compound prepared in the same manner as in the above-mentioned Biological Test Example 1. Three days after the treatment with the agent, 1⁄3 amount of rice plant was collected and their foliage part was cut in 4 to 5 cm length, which were put in a dish with 9 cm diameter with a sheet of filter paper wetted with 2 mL of water. Five larvae of Cnaphalocrocis medinalis Guenee at the second instar were put in the dish which was placed in a room at constant temperature of 25° C. After 2 and 4 days, each rest (each 1⁄3 amount) of foliage parts of rice plant were cut in the same manner and added to the dish. After 7 days the number of dead larvae was counted and the rate of death was calculated. In this test the results of 2 dishes at 1 section were averaged.

CCS(=O)(=O)Oc1cccc(C(=O)Nc2ccc(C(F)(C(F)(F)F)C(F)(F)F)cc2C)c1C(=O)NC(C)CSC (centres unmarked) [compound 14, N^1-(4-heptafluoroisopropyl-2-methylphenyl)-N^2-[1-methyl-2-(methylthio)ethyl]-3-ethanesulfonyloxyphthalamide]
rate of death [1]: 100%

CCS(=O)(=O)Oc1cccc(C(=O)Nc2ccc(C(F)(C(F)(F)F)C(F)(F)F)cc2C)c1C(=O)NC(C)(C)CSC [compound 17, N^2-[1,1-dimethyl-2-(methylthio)ethyl]-N^1-(4-heptafluoroisopropyl-2-methylphenyl)-3-ethanesulfonyloxyphthalamide]
rate of death [1]: 100%

CSCC(C)NC(=O)c1c(OS(C)(=O)=O)cccc1C(=O)Nc1ccc(C(F)(C(F)(F)F)C(F)(F)F)cc1 (centres unmarked) [compound 5, N^1-(4-heptafluoroisopropylphenyl)-N^2-[1-methyl-2-(methylthio)ethyl]-3-methanesulfonyloxyphthalamide]
rate of death [1]: 100%
rate of death [2]: 100%

Cc1cc(C(F)(C(F)(F)F)C(F)(F)F)ccc1NC(=O)c1cccc(OS(C)(=O)=O)c1C(=O)NC(C)(C)C[S+](C)[O-] (centres unmarked) [compound 11, N^2-[1,1-dimethyl-2-(methylsulfinyl)ethyl]-N^1-(4-heptafluoroisopropyl-2-methylphenyl)-3-methanesulfonyloxyphthalamide]
rate of death [1]: 100%
rate of death [2]: 100%

Cc1cc(C(F)(C(F)(F)F)C(F)(F)F)ccc1NC(=O)c1cccc(OS(C)(=O)=O)c1C(=O)NC(C)(C)CS(C)(=O)=O [compound 12, N^2-[1,1-dimethyl-2-(methylsulfonyl)ethyl]-N^1-(4-heptafluoroisopropyl-2-methylphenyl)-3-methanesulfonyloxyphthalamide]
rate of death [1]: 100%
rate of death [2]: 100%

CSCC(C)NC(=O)c1c(OS(C)(=O)=O)cccc1C(=O)Nc1ccc(OC(F)(F)F)cc1C (centres unmarked) [compound 6, N^2-[1-methyl-2-(methylthio)ethyl]-N^1-(4-trifluoromethoxy-2-methylphenyl)-3-methanesulfonyloxyphthalamide]
rate of death [1]: 100%

Cc1cc(C(F)(C(F)(F)F)C(F)(F)F)ccc1NC(=O)c1cccc(OS(C)(=O)=O)c1C(=O)NC(C)C [compound no. 1, N^1(4-heptafluoroisopropyl-2-methylphenyl)-N-2-isopropyl-3-methanesulfonyloxyphthalamide]
rate of death [1]: 100%
rate of death [2]: 100%

CSCC(C)(C)NC(=O)c1c(OS(C)(=O)=O)cccc1C(=O)Nc1ccc(Cl)c(Cl)c1Cl [compound 24, N^2-[1,1-dimethyl-2-(methylthio)ethyl]-N^1-(2,3,4-trichlorophenyl)-3-methanesulfonyloxyphthalamide]
rate of death [1]: 100%

CSCC(C)NC(=O)c1c(OS(C)(=O)=O)cccc1C(=O)Nc1ccc(C(F)(C(F)(F)F)C(F)(F)F)cc1C (centres unmarked) [compound 7, N^1-(4-heptafluoroisopropyl-2-methylphenyl)-N^2-[1-methyl-2-(methylthio)-ethyl]-3-methanesulfonyloxyphthalamide]
rate of death [1]: 100%
rate of death [2]: 100%

CSCC(C)NC(=O)c1c(OS(=O)(=O)C(F)(F)F)cccc1C(=O)Nc1ccc(C(F)(C(F)(F)F)C(F)(F)F)cc1C (centres unmarked) [compound 21, N^1-(4-heptafluoroisopropyl-2-methylphenyl)-N^2-[1-methyl-2-(methylthio)ethyl]-3-trifluoromethanesulfonyloxyphthalamide]
rate of death [1]: 100%

CSCC(C)(C)NC(=O)c1c(OS(C)(=O)=O)cccc1C(=O)Nc1ccc(C(F)(C(F)(F)F)C(F)(F)F)cc1C [compound 10, N^2-[1,1-dimethyl-2-(methylthio)ethyl]-N^1-(4-heptafluoroisopropyl-2-methylphenyl)-3-methanesulfonyloxyphthalamide]
rate of death [1]: 100%
rate of death [2]: 100%
